For experiment [1], the system named is purified enzyme MTA (aminotransferase). The experiment is described as follows: Specificity for amino donor, 7-methoxy-2-tetralone as amino acceptor (Example 3). To be noted: for Relative Activity (%): amino donor varied, 14 mM (racemic 28 mM), acceptor 14 mM 7-methoxy-2-tetralone, 30° C., 1 hour, activity with (S)-α-phenethylamine is 100. Type of experiment: biochemical, Pseudomonas fluorescens KNK08-18. The protocol:
In 20 μL of the purified Enzyme, 380 μL of a 0.1M potassium phosphate buffer containing 14 mM of 7-methoxy-2-tetralone and 14 mM (in case of the racemic amine compound, 28 mM)) of an amine compound of various type was added. After the mixture was reacted at 30° C. for 1 hour, 20 μL of 3N hydrochloric acid was added therein to stop the reaction. The reaction solution thus obtained was analyzed via high-performance liquid chromatography so as to quantitatively analyze 7-methoxy-2-aminotetralin thus obtained. Thereby, the amino group transfer activities with the various amino compounds were analyzed.
(§1) [Analysis Conditions of High-Performance Liquid Chromatography]
(§2) • Column: Cosmosil 5C8-MS (Nacalai Tesque Inc.) • Carrier: 30 mM potassium phosphate buffer (pH 2.5)/acetonitrile/methanol=4/1/1 (by volume) • Flow Rate: 0.9 mL/min • Detection: 254 nm

For experiment [2] the test system is unchanged. As to the kind of experiment: Specificity for amino acceptor, (S)-α-phenethylamine as donor (Examples 5 and 6). Type of experiment: biochemical, Pseudomonas fluorescens KNK08-18. To be noted: for Activity as amino acceptor (in words): donor (S)-α-phenethylamine. The protocol:
The purified enzyme obtained in Example 1 was analyzed in terms of substrate specificity regarding amino acceptors. In 20 μL of the purified Enzyme, 380 μL of a 0.1M potassium phosphate buffer containing 14 mM of (S)-α-phenethylamine and 14 mM of a ketone compound of various type was added. After the mixture was reacted at 30° C. for 1 hour, 20 μL of 3N hydrochloric acid was added therein to stop the reaction. Results of the analysis are shown in Table 3, in which the relative activities are shown where the activity with pyruvic acid as the amino acceptor is 100.
as §1, §2
The purified enzyme obtained in Example 1 was analyzed in terms of substrate specificity regarding amino acceptors in the same manner as in Example 5.

For experiment [3] the test system is unchanged. As to the kind of experiment: Specificity for amino donor, pyruvic acid as acceptor, dabsylated alanine quantified (Example 4). Format: biochemical, Pseudomonas fluorescens KNK08-18. The settings on record: for Amino group transfer activity as amino donor (in words): acceptor pyruvic acid; for Relative Activity (%): amino donor varied, 14 mM, acceptor 14 mM pyruvic acid, pH 7.5, 30° C., 1 hour, activity with (S)-α-phenethylamine is 100. As for the experimental part:
(§3) The amino group transfer activity measurement is carried out as follows: Firstly, 20 μL of a purified enzyme solution having a protein concentration of 0.2 mg/mL is added to 380 μL of a substrate solution having the following composition. After carrying out reaction at 30° C. for 1 hour therein, 20 μL of 3N hydrochloric acid is added therein to stop the reaction. Then, into 20 μL of the resultant reaction mixture, a 0.2M sodium carbonate aqueous solution of 80 μL and an acetone solution of 200 μL containing dabsyl chloride by 3.3 mg/mL are added. Then, the resultant mixture is reacted at 70° C. for 10 min. After 20 μL of acetic acid is added therein with stirring. The reaction mixture thus obtained is analyzed by high-performance liquid chromatography thereby to quantitatively analyze dabsylated alanine.
as §3, with “purified enzyme obtained in Example 1 was analyzed in terms of its reactivity to typical substrates of ω-amino acid transaminase.” for “amino group transfer activity measurement is carried out as follows:”, “was” for “is”, “[…]” for “380 μL”, “were” for “are”, “alanine. Results of the analysis are shown in Table 2, which the amino group transfer activities are shown as relative activities where the activity with (S)-α-phenethylamine as the amino donor is 100.” for “alanine.”
(§4) [Substrate Solution Composition]
(§5) Pyridoxal phosphate 0.02 mM
(§6) Potassium Phosphate Buffer (pH 7.5) 0.1M
(§7) [High-Performance Liquid Chromatography Analysis Conditions]
(§8) Column: Deverosil ODS-HG-3 (Nomura Chemical Co., Ltd.)
(§9) Carrier: Acetonitrile/0.045M acetate buffer (pH 4.1)=35/65 (by volume)

Experiment [4] has as its system MTA (present invention). As to the kind of experiment: Substrate specificity, comparison with ω-amino acid transaminase (Example 7), Enzyme A. Type of experiment: biochemical, Pseudomonas fluorescens KNK08-18. To be noted: for Reactivity as amino donor (in words): Enzyme A (MTA), receptor pyruvic acid or 2-ketoglutaric acid; for Relative activity, Enzyme A: donor 14 mM, activity with (S)-α-phenethylamine is 100. The protocol:
The purified enzyme obtained in Example 1 was analyzed in terms of its reactivity to typical substrates of ω-amino acid transaminase. Firstly, 20 μL of a purified enzyme solution having a protein concentration of 0.2 mg/mL was added to 380 μL of a substrate solution having the following composition. After carrying out reaction at 30° C. for 1 hour therein, 20 μL of 3N hydrochloric acid was added therein to stop the reaction. Then, into 20 μL of the resultant reaction mixture, a 0.2M sodium carbonate aqueous solution of 80 μL and an acetone solution of 200 μL containing dabsyl chloride by 3.3 mg/mL were added. Then, the resultant mixture was reacted at 70° C. for 10 min. After 20 μL of acetic acid was added therein with stirring. The reaction mixture thus obtained was analyzed by high-performance liquid chromatography thereby to quantitatively analyze dabsylated alanine or […]. Results of the analysis are shown in Table 5, in which the relative activities are shown where the activity with (S)-α-phenethylamine as the amino donor is 100. In Table 5, the values of activities of ω-amino acid:pyruvic acid transaminase and 4-amino butyric acid: 2-ketoglutaric acid transaminase are from the literatures “Agric. Biol. Chem. 41, 1701-1706 (1977), Arch. Biochem. Biophys. 200, 156-164 (1980)”.
as §4
Pyruvic acid or 2-ketoglutaric acid 14 mM
as §5, §6, §7, §8, §9

For experiment [5], the target named is T1, ω-Amino Acid: Pyruvic Acid Transaminase (Pseudomonas putida, UniProt P28269).
T1 sequence (P28269 1-449): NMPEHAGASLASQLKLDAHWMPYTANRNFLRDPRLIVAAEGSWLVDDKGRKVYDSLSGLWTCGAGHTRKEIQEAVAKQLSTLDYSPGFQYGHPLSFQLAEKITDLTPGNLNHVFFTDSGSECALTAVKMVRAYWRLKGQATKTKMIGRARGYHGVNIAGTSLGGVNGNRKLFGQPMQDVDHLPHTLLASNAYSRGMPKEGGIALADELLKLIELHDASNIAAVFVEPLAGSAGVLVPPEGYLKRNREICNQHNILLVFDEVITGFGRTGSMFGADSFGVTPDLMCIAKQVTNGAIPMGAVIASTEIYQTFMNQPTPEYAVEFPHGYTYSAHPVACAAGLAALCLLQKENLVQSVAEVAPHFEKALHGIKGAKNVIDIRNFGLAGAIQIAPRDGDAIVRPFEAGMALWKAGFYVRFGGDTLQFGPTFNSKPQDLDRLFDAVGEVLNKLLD
To be noted: amino group receptor pyruvic acid; values from the literature; cited from earlier work.

Experiment [6] relates to 4-Aminobutylic Acid: 2-Ketoglutaric Acid Transaminase. The settings on record: amino group receptor 2-ketoglutaric acid; values from the literature; cited from earlier work.
The mark [7] stands for this setting: Table 4: amino acceptor varied, same manner as in Example 5, donor (S)-α-phenethylamine.
[8] abbreviates: Table 3: amino acceptor varied, 14 mM, donor 14 mM (S)-α-phenethylamine, 30° C., 1 hour, activity with pyruvic acid is 100.
[9] abbreviates: amino group receptor pyruvic acid 14 mM.

“Also recorded” adds a separate entry of the source.

As to `CCC(C)N` (racemic) [±2-butylamine], the “Relative Activity (%)” value in experiment [1] is given as 48%.
For the compound `CC(=O)c1cccnc1` [3-Acetylpyridine], the “Relative Activity (%)” value in experiment [2] (setting [7]) was 10%.
Consider `O=C(O)CCC(=O)C(=O)O` [2-Ketoglutaric Acid], for which, in experiment [2] (setting [8]), the “Relative Activity (%)” value is on record as 0%. Besides, in experiment [2], the “Activity as amino acceptor (in words)” value is listed as “no activity”.
Consider `COc1ccc2c(c1)CC(=O)CC2` [7-Methoxy-2-Tetralone], for which the “Relative Activity (%)” value in experiment [2] (setting [7]) is listed as 10%.
In the case of `CCC=O` [Propionaldehyde], in experiment [2] (setting [8]), the “Relative Activity (%)” value is 5%.
As for `CCCCCC(C)=O` [2-Heptane], the “Relative Activity (%)” value in experiment [2] (setting [7]) is recorded as 7%.
Regarding `NCCCCC(N)C(=O)O` (racemic) [DL-lysine], in experiment [3], the “Amino group transfer activity as amino donor (in words)” value (“Amino group transfer activity” below) is “no activity; also recorded: substantially inactive” and the “Relative Activity (%)” value is 0%. Further, the “Relative Activity (%)” value in experiment [1] is given as 0%.
With `CCC(=O)C(=O)O` [2-Ketobutyric Acid], the “Relative Activity (%)” value in experiment [2] (setting [8]) was found to be 2%.
Turning to `O=CC(=O)O` [Glyoxylic Acid], the “Relative Activity (%)” value in experiment [2] (setting [8]) is given as 99%. For the same compound, the “Activity as amino acceptor (in words)” value in experiment [2] is listed as “high activity; also recorded: active”.
Consider `NCCCCN` [Putrescine], for which the “Reactivity as amino donor (in words)” value in experiment [4] was “not reactive”. Moreover, in experiment [4] (setting [9]), the “Relative activity, Enzyme A” value is listed as 0. Also, in experiment [3], the “Amino group transfer activity” value is “no activity; also recorded: substantially inactive” and the “Relative Activity (%)” value is recorded as 0%. The “Relative activity, Enzyme B” value in experiment [5] is on record as 18.
Take `CCCCN` [n-butylamine]: the “Relative Activity (%)” value in experiment [1] is reported as 7%.
For the compound `CC(C)N` [isopropylamine], in experiment [1], the “Relative Activity (%)” value is 10%.
With `COc1ccc(CC(C)N)cc1OC` (racemic) [±3′,4′-dimethoxyamphetamine], in experiment [1], the “Relative Activity (%)” value was determined as 88%.
`CC(C)CN` [isobutylamine]: in experiment [1], the “Relative Activity (%)” value is listed as 8%.
`O=C1CCN(Cc2ccccc2)C1` [1-Benzyl-3-Pyrrolidinone]: in experiment [2] (setting [7]), the “Relative Activity (%)” value is listed as 20%.
On to `CCCCC(N)CC` (racemic) [±3-heptylamine], for which, in experiment [1], the “Relative Activity (%)” value is given as 19%.
Regarding `CC(=O)c1cnccn1` [Acetylpyrazine], in experiment [2] (setting [7]), the “Relative Activity (%)” value is on record as 100%.
Take `COCC(C)=O` [Methoxypropanone]: the “Relative Activity (%)” value in experiment [2] (setting [7]) was determined as 13%.
With `CC(=O)C(=O)O` [Pyruvic Acid, reference compound], in experiment [2] (setting [8]), the “Relative Activity (%)” value is listed as 100%. Moreover, in experiment [2], the “Activity as amino acceptor (in words)” value is “high activity; also recorded: active”.
In the case of `NCCCC(=O)O` [4-Aminobutyric Acid], the “Reactivity as amino donor (in words)” value in experiment [4] is reported as “not reactive”. Further, the “Relative activity, Enzyme A” value in experiment [4] (amino group receptor 2-ketoglutaric acid 14 mM) stood at 0. For the same compound, in experiment [6], the “Relative activity, Enzyme C” value is given as 100.
For the compound `CC(=O)c1ccc(Cl)cc1` [4′-Chloroacetophenone], the “Relative Activity (%)” value in experiment [2] (setting [7]) was 30%.
Regarding `NCc1ccccc1` [benzylamine], the “Relative Activity (%)” value in experiment [1] came to 35%.
`CC(=O)c1cccc(O)c1` [3′-Hydroxyacetophenone]: the “Relative Activity (%)” value in experiment [2] (setting [7]) amounted to 3%.
As to `O=Cc1ccccc1` [Benzaldehyde], the “Relative Activity (%)” value in experiment [2] (setting [8]) was determined as 2%.
For the compound `C[C@H](N)c1ccccc1` [(S)-α-phenethylamine, reference compound], the “Reactivity as amino donor (in words)” value in experiment [4] was “highly active”. For the same compound, the “Relative activity, Enzyme A” value in experiment [4] (setting [9]) was determined as 100. Moreover, the “Amino group transfer activity” value is given as “active” in experiment [3] and “especially high activity” in experiment [1] (acceptor 7-methoxy-2-tetralone). Further, the “Relative Activity (%)” value in experiment [3] and in experiment [1] was 100% in each case.
As to `NCCc1ccccc1` [β-phenethylamine], in experiment [1], the “Relative Activity (%)” value is on record as 22%.
Still for that read-out and setting: the figure for `NC1CCCCC1` [cyclohexylamine] is 22%; for `CCCC(C)N` (racemic) [±2-pentylamine] it is 60%; for `CCCN` [n-propylamine] it is 6%.
For `CCCCCC(C)N` (racemic) [±2-heptylamine], in experiment [1], the “Relative Activity (%)” value is given as 93%.
Take `CCN` [n-ethylamine]: in experiment [1], the “Relative Activity (%)” value came to 6%.
As for `CC(=O)CCc1ccccc1` [Benzylacetone], the “Relative Activity (%)” value in experiment [2] (setting [7]) came out at 33%.
Regarding `C[C@H](N)C(=O)O` [L-alanine], the “Relative Activity (%)” value in experiment [1] came out at 20%.
As to `COc1cccc(C(C)=O)c1` [3′-Methoxyacetophenone], the “Relative Activity (%)” value in experiment [2] (setting [7]) is on record as 10%.
Same read-out and setting: the figure for `O=C1CCc2ccccc2C1` [2-Tetralone] is 17%.
As to `CC(N)CCc1ccccc1` (racemic) [±3-amino-1-phenylbutane], the “Relative Activity (%)” value in experiment [1] was determined as 90%.
The same measure, in the same setting: the figure for `CCCCCN` [n-amylamine] is 11%.
For the compound `CCCC(=O)C(=O)O` [2-Keto-n-Valeric Acid], the “Relative Activity (%)” value in experiment [2] (setting [8]) is given as 0.1%.
Regarding `CC(=O)c1cccc(C(F)(F)F)c1` [3′-Trifluoromethylacetophenone], in experiment [2] (setting [7]), the “Relative Activity (%)” value is listed as 40%.
Take `CCCC=O` [Butylaldehyde]: the “Relative Activity (%)” value in experiment [2] (setting [8]) is on record as 18%.

Source of the values: patent US8431378B2, “Aminotransferase, gene encoding the same, and methods of using them” (Kaneka Corporation, priority 2005, dated 2013).
